Reference: US20050118276A1, “Coated metal pyrithione particles for treatment of microorganisms” (Arch Chemicals, Inc., priority 2003, published 2005)

System: Malassezia furfur
Experiment: comparative corneofungimetry bioassay on human stratum corneum strippings
Type: cell-based
Conditions: for Median positive fungal cells# from 20 samples: 9 days at 27° C., neutral red vital stain, counted by mm^2
[1] = 1% zinc pyrithione water suspension
[2] = formulated shampoo containing 1% zinc pyrithione

Protocol: As a more advanced test, “corneofungimetry” was used to evaluate the particles prepared in accordance with the Example and Comparative Examples. This test is a good pre-clinical screening method because it requires growing the Malassezia furfur sp on a substrate that is more representative of its natural environment. Cyanoacrylate is used to harvest a layer of skin, and these skin surface strippings are treated with olive oil to simulate sebum. The prepared skin samples are then treated with the actives under investigation, inoculated with the microorganism of interest and incubated.
The corneofungimetry bioassay was performed on normal stratum corneum harvested from 20 healthy volunteers using cyanoacrylate adhesive. Samples were dipped into olive oil and stored in a sterile environment for 3 days.
Malassezia furfur was cultured on MLNA (Modified Leeming and Notman Agar) medium. Suspensions of fungal cells were prepared in physiologic saline (10^4-10^5 cells/ml). Aliquots of 250 μl of these suspensions were deposited onto the stratum corneum samples and incubated under moist conditions at 27° C. for 9 days. Samples were then stained using neutral red as a vital stain identifying living fungi growing on the human stratum corneum. The number of positive fungal cells was counted by mm^2 using computerized image analysis (Analysis Olympus). The medians and ranges were determined. Between-product comparisons were performed using the paired non-parametric Friedman test followed by the Dunn test.

zinc pyrithione [Uncoated]
% killing compared to saline control [1]: 44%
Median positive fungal cells# from 20 samples [1]: 451
% killing compared to saline control [2]: 52%
Median positive fungal cells# from 20 samples [2]: 363
